Results reported in US8481586B2, “Pyrrolo[2,3-a] carbazoles and use thereof as PIM kinase inhibitors” (Centre National de la Recherche Scientifique, priority 2008, dated 2013).

Tests used:
Type in all cases: biochemical
PIM-3 = PIM-3 (Homo sapiens (Human), UniProt Q86V86); assay: inhibition test on kinase PIM-3 (residual activity, IC50); settings: for remaining activity at 10 µM: product at 10 μmol/L, Table 2, N.I. = not inhibitory, read-out: Percentage of residual activity PIM-3; for IC50: ten concentrations, dose-inhibition curve
Description: (§1) MKK1, ERK 1, ERK 2, JNK1, JNK2, JNK3, p38a MAPK, p38b MAPK, p38g MAPK, p38s MAPK, ERK8, RSK1, RSK2, PDK1, PKBa, PKBb, SGK1, S6K1, PKA, ROCK2, PRK2, PKCa, PKC zeta, PKD1, MSK1, MNK1, MNK2, MAPKAP-K2, MAPKAP-K3, PRAK, CAMKKa, CAMKKb, CAMK1, SmMLCK, PHK, CHK1, CHK2, GSK3b, CDK2/cyclin A, PLK1, PLK1 (Okadaic acid), Aurora B, Aurora C, AMPK, MARK3, BRSK2, MELK, CK1, CK2, NEK2a, NEK6, NEK7, IKKb, PIM-1, PIM-2, PIM-3, SRPK1, MST2, EF2K, HIPK2, HIPK3, PAK-4, PAK5, PAK6, Src, Lck, CSK.
(§2) The results in terms of residual activity of the kinases after being placed in contact with the compounds of Examples 2, 3 and 5, at a concentration of 10 μM (10 μmol/L), are shown in Table 1 below.
(§3) The higher the residual activity of the kinase tested, the lower the inhibitory activity of the test compounds on the tested kinase.
(§4) The compounds according to the invention were then tested on the kinases PIM-1, PIM-2 and PIM-3.
(§5) The results in terms of percentage of residual activity after placing the compounds according to the invention in contact with each of the kinases PIM-1, PIM-2 and PIM-3 are given in Table 2 below.
(§6) The higher the residual activity, the lower the inhibitory activity of the test compounds.
(§7) The mean inhibitory concentrations (IC50) of certain preferred compounds of the invention were determined in the following manner: the IC50 values were measured after performing the inhibition tests on the kinases PIM-1, PIM-2 and PIM-3 at ten different concentrations for each test compound, and the IC50 value was determined from the dose-inhibition curves obtained.

PIM-2 = PIM-2 (Homo sapiens (Human), UniProt Q9P1W9); assay: inhibition test on kinase PIM-2 (residual activity, IC50); settings: product at 10 μmol/L, Table 2, N.I. = not inhibitory; for remaining activity at 10 µM: read-out: Percentage of residual activity PIM-2
PIM-2, sequence (Q9P1W9 whole entry, species assumed): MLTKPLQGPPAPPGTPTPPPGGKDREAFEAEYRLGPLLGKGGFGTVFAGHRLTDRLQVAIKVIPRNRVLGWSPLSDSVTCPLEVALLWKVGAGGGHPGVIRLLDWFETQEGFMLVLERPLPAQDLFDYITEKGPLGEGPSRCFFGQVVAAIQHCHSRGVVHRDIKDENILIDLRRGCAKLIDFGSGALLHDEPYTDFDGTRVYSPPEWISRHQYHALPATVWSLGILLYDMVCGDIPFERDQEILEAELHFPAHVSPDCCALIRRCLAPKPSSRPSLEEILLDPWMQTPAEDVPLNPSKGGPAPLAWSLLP
Description: as §1, §2, §3, §4, §5, §6, §7

PIM-1 = PIM-1 (Homo sapiens (Human), UniProt P11309); assay: inhibition test on kinase PIM-1 (residual activity, IC50); settings: for remaining activity at 10 µM / Percentage of residual activity PIM-1: product at 10 μmol/L, Table 2, N.I. = not inhibitory; for remaining activity at 10 µM: read-out: Percentage of residual activity PIM-1; for IC50: ten concentrations, dose-inhibition curve
PIM-1, sequence (P11309 whole entry, species assumed): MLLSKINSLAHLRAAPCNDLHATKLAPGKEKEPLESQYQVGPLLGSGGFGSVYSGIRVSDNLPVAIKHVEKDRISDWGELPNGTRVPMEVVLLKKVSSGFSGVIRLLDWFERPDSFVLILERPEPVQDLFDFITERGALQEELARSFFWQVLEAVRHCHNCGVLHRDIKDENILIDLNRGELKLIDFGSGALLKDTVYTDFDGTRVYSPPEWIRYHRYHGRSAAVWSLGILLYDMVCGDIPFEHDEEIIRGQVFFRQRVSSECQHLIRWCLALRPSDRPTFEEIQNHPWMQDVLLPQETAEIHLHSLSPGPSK
Description: as §1, §2, §3, §4, §5, §6, §7

Compound	remaining activity at 10 µM (PIM-3) [%]	remaining activity at 10 µM (PIM-2) [%]	remaining activity at 10 µM (PIM-1) [%]	IC50 (PIM-3) [nM]	IC50 (PIM-1) [nM]	Percentage of residual activity PIM-2 (PIM-2)	Percentage of residual activity PIM-1 (PIM-1)
O=[N+]([O-])c1ccc2[nH]c3c(ccc4cc[nH]c43)c2c1 [Example 32, 7-nitro-1,10-dihydropyrrolo[2,3-a]carbazole]	11	23	9	–	–	–	–
O=Cc1c[nH]c2c1ccc1c3cc(Br)ccc3[nH]c12 [Example 16, 7-bromo-1,10-dihydropyrrolo[2,3-a]carbazole-3-carbaldehyde]	6	57	6	40	570	–	–
Fc1ccc2[nH]c3c(ccc4cc[nH]c43)c2c1 [Example 28, 7-fluoro-1,10-dihydropyrrolo[2,3-a]carbazole]	20	84	35	–	–	–	–
Brc1ccc2[nH]c3c(ccc4cc[nH]c43)c2c1 [Example 15, 7-bromo-1,10-dihydropyrrolo[2,3-a]carbazole]	8	46	12	440	–	–	–
CCc1cccc2c1[nH]c1c2ccc2c(C=O)c[nH]c21 [Example 51, 9-ethyl-1,10-dihydropyrrolo[2,3-a]carbazole-3-carbaldehyde]	10	14	1	–	–	–	–
O=Cc1c[nH]c2c1ccc1c3cc(-c4ccc(OC(F)(F)F)cc4)ccc3[nH]c12 [Example 42, 7-(4-trifluoromethoxyphenyl)-1,10-dihydropyrrolo[2,3-a]carbazole-3-carbaldehyde]	31	70	29	–	–	–	–
CCc1cccc2c1[nH]c1c2ccc2cc[nH]c21 [Example 33, 9-ethyl-1,10-dihydropyrrolo[2,3-a]carbazole]	23	96	28	–	–	–	–
CCN(CC)CCc1c[nH]c2c1ccc1c3ccccc3[nH]c12 [Example 11, 2-(1,10-dihydropyrrolo[2,3-a]carbazol-3-yl)-N,N-diethylethanamine]	25	78	39	–	–	–	–
Brc1ccc2c(c1)[nH]c1c2ccc2cc[nH]c21 [Example 25, 8-bromo-1,10-dihydropyrrolo[2,3-a]carbazole]	15	93	74	–	–	–	–
O=S(=O)(c1ccccc1)n1ccc2ccc3c4ccccc4[nH]c3c21 [Example 1, 1-benzenesulfonyl-1,10-dihydropyrrolo[2,3-a]carbazole]	64	62	61	–	–	–	–
O=Cc1c[nH]c2c1ccc1c3cc(F)ccc3[nH]c12 [Example 46, 7-Fluoro-1,10-dihydropyrrolo[2,3-a]carbazole-3-carbaldehyde]	5	21	4	–	–	–	–
Cc1ccc2c(c1)[nH]c1c2ccc2cc[nH]c21 [Example 35, 8-methyl-1:10-dihydropyrrolo[2,3-a]carbazole]	13	–	81	–	–	N.I.	–
CCN(CC)CC(O)c1c[nH]c2c1ccc1c3ccccc3[nH]c12 (centres unmarked) [Example 12, 1-(1,10-dihydropyrrolo[2,3-a]carbazol-3-yl)-2-diethylaminoethanol]	16	53	24	–	–	–	–
O=Cc1c[nH]c2c1ccc1c3cccc(Br)c3[nH]c12 [Example 45, 9-bromo-1,10-dihydropyrrolo[2,3-a]carbazole-3-carbaldehyde]	9	28	3	–	–	–	–
Fc1cccc2c1[nH]c1c2ccc2cc[nH]c21 [Example 29, 9-fluoro-1,10-dihydropyrrolo[2,3-a]carbazole]	43	–	–	–	–	N.I.	N.I.
O=Cc1c[nH]c2c1ccc1c3cc([N+](=O)[O-])ccc3[nH]c12 [Example 50, 7-nitro-1,10-dihydropyrrolo[2,3-a]carbazole-3-carbaldehyde]	35	–	–	–	–	N.I.	N.I.
Clc1cc(Cl)c2c(c1)[nH]c1c2ccc2cc[nH]c21 [Example 30, 6,8-dichloro-1,10-dihydropyrrolo[2,3-a]carbazole]	14	36	10	–	–	–	–
COc1cccc(-c2ccc3[nH]c4c(ccc5cc[nH]c54)c3c2)c1 [Example 18, 7-(3-methoxyphenyl)-1,10-dihydropyrrolo[2,3-a]-carbazole]	39	51	46	–	–	–	–
O=Cc1c[nH]c2c1ccc1c2[nH]c2cccc(Br)c21 [Example 44, 6-bromo-1,10-dihydropyrrolo[2,3-a]carbazole-3-carbaldehyde]	5	6	2	–	–	–	–
CCN(CC)C(=O)/C(=N\O)c1c[nH]c2c1ccc1c3ccccc3[nH]c12 [Example 13, 2-(1,10-dihydropyrrolo[2,3-a]carbazol-3-yl)-N,N-diethyl-2-hydroxyiminoethanamide]	21	27	41	–	–	–	–
O=Cc1c[nH]c2c1ccc1c3cc(-c4ccc(F)cc4F)ccc3[nH]c12 [Example 40, 7-(2,4-difluorophenyl)-1,10-dihydropyrrolo[2,3-a]-carbazole-3-carbaldehyde]	6	32	6	200	660	–	–
FC(F)(F)c1cccc2c1[nH]c1c2ccc2cc[nH]c21 [Example 34, 9-(trifluoromethyl)-1,10-dihydropyrrolo[2,3-a]carbazole]	45	–	85	–	–	N.I.	–
O=Cc1c[nH]c2c1ccc1c2[nH]c2cc(Cl)cc(Cl)c21 [Example 48, 6,8-dichloro-1,10-dihydropyrrolo[2,3-a]carbazole-3-carbaldehyde]	6	34	8	–	–	–	–
O=Cc1c[nH]c2c1ccc1c3cc(-c4ccc(F)cc4)ccc3[nH]c12 [Example 39, 7-(4-fluorophenyl)-1,10-dihydropyrrolo[2,3-a]carbazole-3-carbaldehyde]	15	55	15	–	–	–	–
O=S(=O)(c1ccccc1)n1ccc2ccc3c4cc(Br)ccc4[nH]c3c21 [Example 14, 1-benzenesulfonyl-7-bromo-1,10-dihydropyrrolo-[2,3-a]carbazole]	61	52	51	–	–	–	–
O=Cc1c[nH]c2c1ccc1c3cccc(F)c3[nH]c12 [Example 47, 9-Fluoro-1,10-dihydropyrrolo[2,3-a]carbazole-3-carbaldehyde]	3	11	5	–	–	–	–
Cc1ccc2c(c1)[nH]c1c2ccc2c(C=O)c[nH]c21 [Example 52, 8-methyl-1,10-dihydropyrrolo[2,3-a]carbazole-3-carbaldehyde]	8	39	15	–	–	–	–
N#Cc1ccc2[nH]c3c(ccc4cc[nH]c43)c2c1 [Example 31, 1,10-dihydropyrrolo[2,3-a]carbazole-7-carbonitrile]	4	26	9	–	–	–	–
CCOC(=O)C(=O)c1c[nH]c2c1ccc1c3ccccc3[nH]c12 [Example 8, ethyl 2-(1,10-dihydropyrrolo[2,3-a]carbazol-3-yl)-2-oxoacetate]	33	47	44	–	–	–	–
CCN(CC)C(=O)C(=O)c1c[nH]c2c1ccc1c3ccccc3[nH]c12 [Example 10, 2-(1,10-dihydropyrrolo[2,3-a]carbazol-3-yl)-N,N-diethyl-2-oxoacetamide]	39	51	54	–	–	–	–
